The assay deals with T1, ER protein (Homo sapiens, UniProt P03372).
T1 sequence (P03372 1-595): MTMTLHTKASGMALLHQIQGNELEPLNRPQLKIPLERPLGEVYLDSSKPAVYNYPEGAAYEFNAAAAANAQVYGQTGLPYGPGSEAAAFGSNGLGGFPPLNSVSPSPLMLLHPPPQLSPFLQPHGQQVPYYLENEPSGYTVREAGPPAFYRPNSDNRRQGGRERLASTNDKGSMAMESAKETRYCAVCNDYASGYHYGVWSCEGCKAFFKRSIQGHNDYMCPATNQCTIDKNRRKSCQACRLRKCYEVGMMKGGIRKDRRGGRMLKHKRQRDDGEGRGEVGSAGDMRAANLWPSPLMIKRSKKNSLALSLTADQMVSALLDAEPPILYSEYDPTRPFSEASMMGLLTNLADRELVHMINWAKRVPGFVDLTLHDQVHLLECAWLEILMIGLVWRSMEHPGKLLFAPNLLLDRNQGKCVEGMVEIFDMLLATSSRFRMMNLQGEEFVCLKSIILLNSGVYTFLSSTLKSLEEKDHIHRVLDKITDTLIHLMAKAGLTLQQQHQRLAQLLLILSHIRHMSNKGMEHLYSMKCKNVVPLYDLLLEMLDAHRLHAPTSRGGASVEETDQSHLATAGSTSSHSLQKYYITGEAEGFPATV
Briefly: Western blotting analysis of ER protein degradation in T47D cell line. Format: cell-based. On the set-up: western blotting detection of the level of intracellular ER protein; endogenous in cells; host or cells: T47D. The note with it: degradation of ER protein, T47D cells, drug treatment for 16 hours, Western blot gray values vs DMSO control; read-out: DC50 (nM)/T47Dcell line. The method, then:
T47D cells were cultured in an incubator with 5% CO2 at 37° C. Complete medium was RPMI1640 supplemented with 10% Foetal bovine serum (FBS), 100 U/ml Penicillin and Streptomycin, and 0.77 μg/mL recombinant human insulin. Western blotting analysis of T47D cell line: • Cells were plated in a 24-well plate at a cell seeding […] of 1.5×10^5 cells/mL, with 1 ml cell suspensions per well. • After 24 h the cells were adherent, and the cells in each well were treated with 1 μL a certain concentration of ER protein regulators of the present disclosure. […] Afterwards, the membranes were block by using the Blocking Buffer, and the antibody incubation and development were performed. (The above procedures were all based on the antibody product manual of the manufacturer) DC50 value (the drug concentration required for degrading proteins by 50%, abbreviated as DC50) reads method: comparing the gray values of the Western blotting bands for the drug treatment with the gray values of the Western blotting band for the DMSO control, and reading the drug concentration range corresponding to the gray value of the Western blotting bands for the drug treatment which is equal to half of the gray value of the Western blotting band for the DMSO control. DC50 value could also be calculated as follows: using software ImageJ to quantify the gray values of the Western blotting bands for the drug treatment, fitting the relationship curve between drug concentrations and gray values, and from the fitted curve, calculating the drug concentration corresponding to half of the gray value of the Western blotting band for the DMSO control.

This is an account of results in US20220016102A1, “ER PROTEIN REGULATORS AND USE THEREOF” (ShanghaiTech University, priority 2018, published 2022).

Turning to `Cc1ncsc1-c1ccc(CNC(=O)[C@@H]2C[C@@H](O)CN2C(=O)[C@@H](NC(=O)CCOCCOCCOCCC(=O)N(C)CCOc2ccc(/C(=C(/CCCl)c3ccccc3)c3ccccc3)cc2)C(C)(C)C)cc1` [SIAIS180024, (2S,4R)-1-((S)-2-(tert-butyl)-19-(4-((Z)-4-chloro-1,2-diphenylbut-1-en-1-yl)phenoxy)-17-methyl-4,16-dioxo-7,10,13-trioxa-3,17-diazanonadecanoyl)-4-hydroxy-N-(4-(4-methylthiazol-5-yl)benzyl)pyrrolidine-2-carboxamide], the DC50 is less than 50 nM. `Cc1ncsc1-c1ccc(CNC(=O)[C@@H]2C[C@@H](O)CN2C(=O)[C@@H](NC(=O)CCOCCOCCOCCC(=O)N2CCN(CCOc3ccc(C(=C(CCCl)c4ccccc4)c4ccc(O)cc4)cc3)CC2)C(C)(C)C)cc1` [SIAIS251050, (2S,4R)-1-((S)-2-(tert-butyl)-16-(4-(2-(4-(4-chloro-1-(4-hydroxyphenyl)-2-phenylbut-1-en-1-yl)phenoxy)ethyl)piperazin-1-yl)-4,16-dioxo-7,10,13-trioxa-3-azahexadecanoyl)-4-hydroxy-N-(4-(4-methylthiazol-5-yl)benzyl)pyrrolidine-2-carboxamide]: the DC50 is less than 50 nM. With `Cc1ncsc1-c1ccc(CNC(=O)[C@@H]2C[C@@H](O)CN2C(=O)[C@@H](NC(=O)CCOCCOCCOCCOCCOCCC(=O)N(C)CCOc2ccc(/C(=C(/CCCl)c3ccccc3)c3ccccc3)cc2)C(C)(C)C)cc1` [SIAIS180022, N1-(2-(4-((Z)-4-chloro-1,2-diphenylbut-1-en-1-yl)phenoxy)ethyl)-N19-((S)-1-((2S,4R)-4-hydroxy-2-((4-(4-methylthiazol-5-yl)benzyl)carbamoyl)pyrrolidin-1-yl)-3,3-dimethyl-1-oxobutan-2-yl)-N1-methyl-4,7,10,13,16-pentaoxanonadecanediamide] the figure was less than 50 nM; with `Cc1ncsc1-c1ccc(CNC(=O)[C@@H]2C[C@@H](O)CN2C(=O)[C@@H](NC(=O)CCCCCCCCC(=O)N(C)CCOc2ccc(/C(=C(/CCCl)c3ccccc3)c3ccccc3)cc2)C(C)(C)C)cc1` [SIAIS180036, N1-(2-(4-((Z)-4-chloro-1,2-diphenylbut-1-en-1-yl)phenoxy)ethyl)-N10-((S)-1-((2S,4R)-4-hydroxy-2-((4-(4-methylthiazol-5-yl)benzyl)carbamoyl)pyrrolidin-1-yl)-3,3-dimethyl-1-oxobutan-2-yl)-N1-methyldecanediamide], less than 200 nM; with `Cc1ncsc1-c1ccc(CNC(=O)[C@@H]2C[C@@H](O)CN2C(=O)[C@@H](NC(=O)CCCCCCC(=O)N(C)CCOc2ccc(/C(=C(/CCCl)c3ccccc3)c3ccccc3)cc2)C(C)(C)C)cc1` [SIAIS180033, N1-(2-(4-((Z)-4-chloro-1,2-diphenylbut-1-en-1-yl)phenoxy)ethyl)-N8-((S)-1-((2S,4R)-4-hydroxy-2-((4-(4-methylthiazol-5-yl)benzyl)carbamoyl)pyrrolidin-1-yl)-3,3-dimethyl-1-oxobutan-2-yl)-N1-methyloctanediamide], less than 50 nM. The figure for `Cc1ncsc1-c1ccc(CNC(=O)[C@@H]2C[C@@H](O)CN2C(=O)[C@@H](NC(=O)CCOCCOCCOCCOCCC(=O)N(C)CCOc2ccc(/C(=C(/CCCl)c3ccccc3)c3ccccc3)cc2)C(C)(C)C)cc1` [SIAIS180025, N1-(2-(4-((Z)-4-chloro-1,2-diphenylbut-1-en-1-yl)phenoxy)ethyl)-N16-((S)-1-((2S,4R)-4-hydroxy-2-((4-(4-methylthiazol-5-yl)benzyl)carbamoyl)pyrrolidin-1-yl)-3,3-dimethyl-1-oxobutan-2-yl)-N1-methyl-4,7,10,13-tetraoxahexadecanediamide] is less than 50 nM; for `CCC(=C(c1ccc(O)cc1)c1ccc(OCCNC(=O)CCN2CCN(CCNc3cccc4c3C(=O)N(C3CCC(=O)NC3=O)C4=O)CC2)cc1)c1ccc(O)cc1` (stereo not shown) [SIAIS208172, N-(2-(4-(1,2-bis(4-hydroxyphenyl)but-1-en-1-yl)phenoxy)ethyl)-3-(4-(2-((2-(2,6-dioxopiperidin-3-yl)-1,3-dioxoisoindolin-4-yl)amino)ethyl)piperazin-1-yl)propanamide] it is less than 50 nM.
